Data: paper PMC9394284, “Discovery of Novel Dual Adenosine A2A and A1 Receptor Antagonists with 1H-Pyrazolo[3,4-d]pyrimidin-6-amine Core Scaffold as Anti-Parkinson’s Disease Agents” (Pharmaceuticals, 2022)

Tests used:
hA1 receptor = target: T1, hA1 receptor (Homo sapiens, UniProt P30542); experiment: radioligand binding to human A1 receptors, CHO-K1 membranes, [3H]DPCPX; conditions: average of duplicate experiments
T1 sequence (P30542 1-326): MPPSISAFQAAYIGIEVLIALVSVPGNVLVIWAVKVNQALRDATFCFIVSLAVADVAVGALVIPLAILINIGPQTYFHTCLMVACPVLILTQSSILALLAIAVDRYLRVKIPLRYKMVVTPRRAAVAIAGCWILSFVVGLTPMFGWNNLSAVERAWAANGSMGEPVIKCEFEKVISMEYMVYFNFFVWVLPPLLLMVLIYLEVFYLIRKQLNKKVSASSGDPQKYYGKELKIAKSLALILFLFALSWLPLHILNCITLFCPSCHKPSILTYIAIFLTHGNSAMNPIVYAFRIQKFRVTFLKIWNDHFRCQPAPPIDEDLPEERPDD
Protocol: The radioligand-binding assays for adenosine receptors were performed at Eurofins Discovery Services (Panlabs, Taiwan). Briefly, stock solutions of the compounds were prepared in DMSO and further diluted with the incubation buffer to the desired concentration. Final DMSO concentrations in the assay were 1.0%. For adenosine A1 screening, a 10 μg aliquots of membrane preparations from human recombinant CHO-K1 cells stably expressing A1 receptors (CHO-K1-hA1AR clone3, EPDST, R200510) were incubated with 1 nM [^3H]DPCPX in incubation buffer (20 mM HEPES, pH 7.4, 10 mM MgCl2, 100 mM NaCl 1.40 nM) for 90 min at 25 °C. Nonspecific binding was estimated in the presence of 100 μM R(-)-PIA. Membranes were filtered and washed 3 times and the filters were counted to determine specifically bound [^3H]DPCPX. Chemical compounds were screened at 10 μM. For A2A screening, membrane preparations from human recombinant HEK-293 cells stably expressing A2A receptors (PerkinElmer, RBHA2AM) were incubated with 0.05 μM [^3H]CGS-21680 in incubation buffer (50 mM Tris-HCl, pH 7.4, 10 mM MgCl2, 1 mM EDTA, 2 U/mL Adenosine Deaminase) for 90 min at 25 °C. Nonspecific binding was estimated in the presence of 50.0 μM NECA. Membranes were filtered and washed 3 times and the filters were counted to determine [^3H]CGS-21680 specifically bound. For A2B screening, membrane preparations from human recombinant HEK-293 cells stably expressing A2B receptors (PerkinElmer, ES-013-M) were incubated with 1.6 nM [^3H]MRS1754 in incubation buffer (50 mM Tris-HCl, pH 6.5, 5 mM MgCl2, 1 mM EDTA, 0.01 % Bacitracin) for 90 min at 25 °C. Nonspecific binding was estimated in the presence of 100 μM NECA. Membranes were filtered and washed 3 times and the filters were counted to determine [^3H]MRS1754 specifically bound. For A3 screening, membrane preparations from human recombinant CHO-K1 cells stably expressing A3 receptors (PerkinElmer, ES-012-M) were incubated with 0.5 nM [^125I]AB-MECA in incubation buffer (25 mM HEPES, pH 7.4, 5 mM MgCl2, 1 mM CaCl2, 0.1 % BSA) for 60 min at 25 °C. Nonspecific binding was estimated in the presence of 1.0 μM IB-MECA.
IC50 values were determined by a nonlinear, least-squares regression analysis using MathIQ^TM (ID Business Solutions Ltd., Guildford, UK). Where inhibition constants (Ki) were presented, the Ki values were calculated using Cheng and Prusoff equation [18] using the observed IC50 of the compound, the concentration of radioligand employed in the assay, and the historical values for the KD of the ligand (obtained experimentally at Eurofins Panlabs, Inc.). The Hill coefficient (nH), which defines the slope of the competitive binding curve, was calculated using MathIQ^TM.

solubility (qualitative) = type: physicochemical; conditions: CF3 next to aniline, difficulties in forming salt
hA2A receptors = target: T2, hA2A receptors (Homo sapiens, UniProt P29274); experiment: radioligand binding to human A2A receptors, HEK-293 membranes; conditions: average of duplicate experiments
T2 construct: purchased PerkinElmer RBHA2AM
T2 sequence (P29274 whole entry): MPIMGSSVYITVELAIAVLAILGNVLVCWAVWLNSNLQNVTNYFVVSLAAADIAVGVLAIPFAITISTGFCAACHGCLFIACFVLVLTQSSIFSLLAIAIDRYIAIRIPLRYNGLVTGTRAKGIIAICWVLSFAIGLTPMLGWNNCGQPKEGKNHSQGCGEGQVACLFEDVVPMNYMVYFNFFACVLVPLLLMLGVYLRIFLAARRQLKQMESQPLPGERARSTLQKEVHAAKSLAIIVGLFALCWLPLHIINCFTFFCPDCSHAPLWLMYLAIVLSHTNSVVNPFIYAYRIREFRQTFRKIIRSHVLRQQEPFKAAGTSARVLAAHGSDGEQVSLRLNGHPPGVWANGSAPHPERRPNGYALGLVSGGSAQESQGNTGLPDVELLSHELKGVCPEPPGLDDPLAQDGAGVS
Protocol: The binding affinities of synthesized compounds to human A2A receptors (hA2AR) were measured by assessing competitive binding of ligands to radioligand […] using membrane preparations of human recombinant HEK-293 cells expressing human A2A receptors.
The radioligand-binding assays for adenosine receptors were performed at Eurofins Discovery Services (Panlabs, Taiwan). Briefly, stock solutions of the compounds were prepared in DMSO and further diluted with the incubation buffer to the desired concentration. Final DMSO concentrations in the assay were 1.0%. […] Nonspecific binding was estimated in the presence of 100 μM R(-)-PIA. Membranes were filtered and washed 3 times and the filters were counted to determine specifically bound [^3H]DPCPX. Chemical compounds were screened at 10 μM. […] Nonspecific binding was estimated in the presence of 50.0 μM NECA. […] Nonspecific binding was estimated in the presence of 100 μM NECA. Membranes were filtered and washed 3 times and the filters were counted to determine [^3H]MRS1754 specifically bound. […] Nonspecific binding was estimated in the presence of 1.0 μM IB-MECA.
IC50 values were determined by a nonlinear, least-squares regression analysis using MathIQ^TM (ID Business Solutions Ltd., Guildford, UK). […] The Hill coefficient (nH), which defines the slope of the competitive binding curve, was calculated using MathIQ^TM.

[1] = metabolic stability in cryopreserved dog hepatocytes
Protocol: (§1) Metabolic stability of 11o was determined in cryopreserved hepatocytes from mice, rats, dogs, monkeys and human according to the SOPs of Frontage Laboratories Inc. Briefly, cryopreserved hepatocytes for pre-clinical animals and for human (BioIVT, Westbury, NY, USA) were thawed in a 37 °C water bath with gentle shaking until ice had almost melted. The suspensions were immediately transferred to a centrifuge tube (50 mL) containing pre-warmed thawing media at 37 °C with gentle handshaking to prevent the cells from settling. Cell suspensions were centrifuged at 50× g and 4 °C for 5 min. The supernatant was discarded and the pellets were resuspended in prewarmed incubation media (5 mL) at 37 °C. The percentage of viable cells in the suspension was determined by Trypan blue staining method to ensure viability of ≥70 %. […] The samples were centrifuged and aliquots of the supernatant were analyzed for parent compounds by LC/MS/MS using suitable multiple reaction monitoring (MRM) transitions. […] The disappearance of 11o and midazolam was monitored by LC/MS/MS (MRM) analysis of the hepatocyte extracts at each time point. The peak area ratio of the analyte to internal standard was obtained for each sample and the rate of disappearance of 11o was assessed by comparing the peak area ratios at various time points to the peak area ratio obtained at t = 0. The t1/2 is obtained (using the linear portion of semi-log plot of the area ratio vs. time) and the CLint values determined using well-stirred model.

[2] = metabolic stability in cryopreserved rat hepatocytes
Protocol: as §1

[3] = metabolic stability in cryopreserved monkey hepatocytes
Protocol: as §1

[4] = metabolic stability in cryopreserved mouse hepatocytes
Protocol: as §1

[5] = metabolic stability in cryopreserved human hepatocytes
Protocol: as §1

Structure (SMILES)	Ki (hA1 receptor) [nM]	solubility (in words) (solubility (qualitative))	Ki (hA2A receptors) [nM]	half-life at 0.2 μM ([1]; beagle, dog, hepatocytes) [min]	Intrinsic Clearance ([1]; dog hepatocytes, midazolam 0.2 μM) [mL/min/10^6 Cells]	half-life at 0.2 μM ([2]; Sprague Dawley, rat, hepatocytes) [min]	Intrinsic Clearance ([2]; rat hepatocytes, midazolam 0.2 μM) [mL/min/10^6 Cells]	Intrinsic Clearance ([3]; monkey hepatocytes, midazolam 0.2 μM) [mL/min/10^6 Cells]	half-life at 0.2 μM ([3]; monkey, hepatocytes) [min]	half-life at 0.2 μM ([4]; CD-1, mouse, hepatocytes) [min]	Intrinsic Clearance ([4]; mouse hepatocytes, midazolam 0.2 μM) [mL/min/10^6 Cells]	Intrinsic Clearance ([5]; human hepatocytes, midazolam 0.2 μM) [mL/min/10^6 Cells]	half-life at 0.2 μM ([5]; human, hepatocytes) [min]
N#Cc1cccc(-c2nc(N)nc3c2cnn3Cc2ccc(N)c(C(F)(F)F)c2)c1F [11x, 3-(6-Amino-1-(4-amino-3-(trifluoromethyl)benzyl)-1H-pyrazolo[3,4-d]pyrimidin-4-yl)-2-fluorobenzonitrile]	33	greatly reduced solubility	2.71	–	–	–	–	–	–	–	–	–	–
Cc1ncc2n1-c1ccc(Cl)cc1C(c1ccccc1F)=NC2 [Midazolam, reference compound]	–	–	–	32.8	0.0211	21.9	0.0317	0.0192	36	49.9	0.0139	0.0101	68.3
